Measurements from patent US20190352276A1, “INHIBITORS OF BRUTON'S TYROSINE KINASE” (Joint Stock Company "Biocad", priority 2016, published 2019).

What was measured:
[1] = General cytotoxicity on HepG2 cells (CC50; therapeutic index CC50 HepG2/IC50 Mino); assay type: cell-based; conditions: human, HepG2 cells (hepatocellular carcinoma); Table 10; 72 hours, Alamar Blue; average of several tests
Outline: (§1)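 Alamar Blue viability after 72 h exposure to compounds (final 200 μM–4 μM) gave CC50; HepG2 plated 2*10^4/well in DMEM 24 h beforehand. Therapeutic index expressed as ratio of HepG2 CC50 to Mino antiproliferative IC50.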

[2] = tested on: HepG2 cells (hepatocellular carcinoma); test: as above; assay type: cell-based; conditions: Table 10; therapeutic index
Outline: as §1

[3] = Stability in human blood plasma; conditions: 10 μM in pooled human blood plasma, incubated 4 hours at 37° C.
[4] = tested on: Z-138 (mantle cell lymphoma); test: Antiproliferative activity, Z-138 cells (Alamar Blue); assay type: cell-based; conditions: Homo sapiens, Table 10, 72 h, average of several tests
Outline: (§2)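 A 72 h growth-inhibition assay using Alamar Blue fluorescence as the viability readout, with IC50 taken from a four-parameter logistic curve.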

[5] = tested on: Mino (mantle cell lymphoma); test: Antiproliferative activity, Mino cells (Alamar Blue); assay type: cell-based; conditions: Homo sapiens, Table 10, 72 h, average of several tests
Outline: as §2

[6] = tested on: DOHH2 (follicular lymphoma); test: Antiproliferative activity, DOHH2 cells (Alamar Blue); assay type: cell-based; conditions: Homo sapiens, DOHH-2, Table 10, 72 h, average of several tests
Description: Antiproliferative activity of BTK inhibitors was measured in cell-based bioassay on B-cells cultures: Mino (mantle cell lymphoma, ATCC® CRL-3000™), Z-138 (mantle cell lymphoma, ATCC® CRL-3001™) and DOHH2 (follicular lymphoma, Creative Bioarray CSC-C0219) using cell viability reagent Alamar Blue (Invitrogen, #DAL 1100). Cells were cultured in 10% FB S-supplemented (HyClone, #SH3008803/Gibco, #16140-071) RPMI-1640 (PanEco, #S330p) for at least 1 passage after thawing, washed with PBS and passaged in 96-well culture plates (Corning, #3599) with growth medium with 10% FBS (HyClone, #SH3008803/Gibco, #16140-071) and antibiotic (50 μg/ml of gentamicin (Biolot, #1.3.16))≈3*10^4 cells in 50 μl of medium per well.
The compounds were dissolved in DMSO and diluted with the assay medium to final concentrations ranging from […]. 150 μl of each diluted compound were then added to each well (final concentration of DMSO was less than 1%) and incubated at 37° C. in an incubator under 5% of CO2 for 72 h. After incubation, 20 μl of Alamar Blue reagent (Invitrogen, #DAL1100) were added to each well. The plates were shaked on an orbital shaker (Biosan, Latvia) and then incubated for 14-16 hours at 37° C. in the incubator.
The number of living cells were estimated, measuring the fluorescence signal at the excitation wavelength (REx) of 540 nm and the emission wavelength (λEm) of 590 nm on a microplate reader (Tecan Infinite M200Pro, Switzerland).
For each compound, IC50 was calculated using Magellan 7.2 software (Tecan, Switzerland) approximating experimental points by four-parameter logistic model with the optimization by Levenberg-Marquardt.

[7] = Permeability through the monolayer of Caco-2 cells; assay type: in vitro ADME; conditions: human; for Papp A→B at 2 h, 10 μM / Papp B→A at 2 h, 10 μM: 2 h at 37° C.; for efflux ratio at 2 h, 10 μM: read-out: efflux (Papp B-A/Papp A-B)
From the text: Assessment of permeability through the monolayer of Caco-2 cells allows to evaluate the ability of the candidate compounds to penetrate through biological membranes by active and passive transport.
Caco-2, the cells of the intestinal epithelium, had been cultured in transwell plate inserts with the filters (with pores of 0.4 μm, BD Falcon with High Density, #353495) for 21 days, and then the integrity of the monolayer were estimated with Lucifer Yellow dye (Sigma-Aldrich, USA) by standard protocol. When setting the A→B transfer, solutions of test substances were added in a buffer with pH 6.5 (Hanks solution, 10 mM HEPES, 15 mM glucose solution) with the concentration of 10 μM into the upper chamber; the lower chamber was filled with a buffer with pH 7.4 (Hanks solution, 10 mM HEPES, 15 mM glucose solution, 1% BSA). When setting B→A transfer, the upper chamber was filled with the buffer with pH 6.5, and solutions of the test substances were added in the buffer with pH 7.4 at the concentration of 10 μM in the lower chamber. Propranolol was used as a control substance (as it has high permeability).
We used gradient elution (1 mL/min flow rate). We determined the areas of peaks corresponding to the compounds. On the basis of peak areas in the calibration standards we determined the concentration of compound in the initial solution and in the samples from the wells of the upper and lower chambers.
Papp, permeability through the cell layer, was calculated using the following formula:
Papp=(C(t)*V)/(C(0)*t*Area), where
Papp is the effective constant of permeability, m/s V is the volume of solution (0.8 ml in A→B test, 0.2 ml in B→A test), ml Area is the surface area of the membrane (0.33 cm^2), cm^2 t is the time of incubation (7200 sec), sec C(0) is the concentration of the initial solution, μM C(t) is the concentration of the solution after 2 hours (the concentration in the sample from the well of the lower chamber in A→B test; the concentration in the sample from the well of the top chamber in B→A test), μM
The value was calculated with the following formula:
efflux=Papp B-A/Papp A-B, where
Papp A-B is the value of the permeability in the direct test (A→B); Papp B-A is the value of the permeability in the backward test in (B→A).

[8] = Chemical stability in artificial gastric fluid (SGF without enzymes); conditions: 10 μM in SGF without enzymes, pH=1.4, 37° C.

Amount of substance in the sample, % (stability in human blood plasma) [3]	IC50 [4]	IC50 [5]	IC50 [6]	Papp A→B at 2 h, 10 μM [7]	Papp B→A at 2 h, 10 μM [7]	efflux ratio at 2 h, 10 μM [7]	Amount of substance in the sample in % (chemical stability) [8]	SMILES	CC50 at 72 h [1]	CC50 (HepG2)/IC50 (Mino) [2]
91.9%	20.9 µM	21 µM	23.5 µM	–	–	–	–	C=CC(=O)N1CCC[C@@H](n2nc(-c3ccc(-n4ccc(=O)cc4)cc3F)c3cncc(Cl)c32)C1 [BCD-BTK-204, (R)-1-(4-(1-(1-acryloylpiperidin-3-yl)-7-chloro-1H-pyrazolo[4,3-c]pyridin-3-yl)-3-fluorophenyl)pyridin-4(1H)-one]	62 µM	2.95
88.6%	24.9 µM	16.6 µM	20.2 µM	–	–	–	–	C=CC(=O)N1CCC[C@@H](n2nc(-c3ccc(-n4ccc(=O)cc4)c(F)c3)c3cncc(Cl)c32)C1 [BCD-BTK-205, (R)-1-(4-(1-(1-acryloylpiperidin-3-yl)-7-chloro-1H-pyrazolo[4,3-c]pyridin-3-yl)-2-fluorophenyl)pyridin-4(1H)-one]	57.2 µM	3.45
–	9.7 µM	3.19 µM	19.7 µM	8.39 ×10⁻⁶ cm/s	5.17 ×10⁻⁶ cm/s	0.62	–	C=CC(=O)N1CCC[C@@H](n2nc(-c3ccc(Oc4ccncc4C#N)cc3)c3cncc(C#N)c32)C1 [BCD-BTK-213, (R)-1-(1-acryloylpiperidin-3-yl)-3-(4-(3-cyanopyridin-4-yloxy)phenyl)-1H-pyrazolo[4,3-c]pyridine-7-carbonitrile]	> 100 µM	>31.3
80.5%	4.98 µM	10.5 µM	3.05 µM	–	–	–	91.3%	C=CC(=O)N1CCC[C@@H](n2nc(-c3ccc(C(=O)Nc4cc(C(F)(F)F)ccn4)cc3)c3cncc(C#N)c32)C1 [BCD-BTK-221, 4-{7-cyano-1-[1-(prop-2-enoyl)piperidin-3-yl]-1H-pyrazolo[4,3-c]pyridin-3-yl}-N-[4-(trifluoromethyl)pyridin-2-yl]benzamide]	5.32 µM	0.51
93.1%	3.39 µM	2.26 µM	–	9.8 ×10⁻⁶ cm/s	1.84 ×10⁻⁶ cm/s	0.19	100%	C=CC(=O)N1CCC[C@@H](n2nc(-c3ccc(C(=O)Nc4cc(C(F)(F)CC)ccn4)cc3)c3c(N)ncc(Cl)c32)C1 [BCD-BTK-231, (R)-4-(1-(1-acryloylpiperidin-3-yl)-4-amino-7-chloro-1H-pyrazolo[4,3-c]pyridin-3-yl)-N-(4-(1,1-difluoropropyl)pyridin-2-yl)benzamide]	9.08 µM	4.01
88.6%	10.8 µM	15.3 µM	–	6.27 ×10⁻⁶ cm/s	3.58 ×10⁻⁶ cm/s	0.57	95.9%	C=CC(=O)N1CCC[C@@H](n2nc(-c3ccc(Oc4ccncc4C#N)cc3)c3c(N)ncc(Cl)c32)C1 [BCD-BTK-232, (R)-4-(4-(1-(1-acryloylpiperidin-3-yl)-4-amino-7-chloro-1H-pyrazolo[4,3-c]pyridin-3-yl)phenoxy)nicotinonitrile]	31.1 µM	2.04
90.7%	27.5 µM	16.3 µM	17 µM	–	–	–	100%	CC#CC(=O)N1CCC[C@H]1Cn1nc(-c2ccc(Oc3ccncc3)cc2)c2cncc(Cl)c21 [BCD-BTK-259, (S)-1-(2-((7-chloro-3-(4-(pyridin-4-yloxy)phenyl)-1H-pyrazolo[4,3-c]pyridin-1-yl)methyl)pyrrolidin-1-yl)but-2-yn-1-one]	47.6 µM	2.91
100.0%	5.01 µM	4.27 µM	–	8.3 ×10⁻⁶ cm/s	0.95 ×10⁻⁶ cm/s	0.11	100%	CC#CC(=O)N1CC(Cn2nc(-c3ccc(Oc4ccncc4)cc3)c3cncc(Cl)c32)C1 [BCD-BTK-261, 1-(3-((7-chloro-3-(4-(pyridin-4-yloxy)phenyl)-1H-pyrazolo[4,3-c]pyridin-1-yl)methyl)azetidin-1-yl)but-2-yn-1-one]	8.33 µM	1.95
91.3%	> 100 µM	40.1 µM	–	–	–	–	100%	C=CC(=O)N1CCC[C@@H](n2nc(-c3ccc(Oc4cncc(C(N)=O)c4)cc3)c3cncc(F)c32)C1 [BCD-BTK-274, (R)-5-(4-(1-(1-acryloylpiperidin-3-yl)-7-fluoro-1H-pyrazolo[4,3-c]pyridin-3-yl)phenoxy)nicotinamide]	38 µM	0.95
–	30.1 µM	17.9 µM	20.6 µM	–	–	–	99.8%	C=CC(=O)N1CCC[C@@H](n2nc(-c3cnc(C(=O)Nc4cccc(F)n4)nc3)c3cncc(Cl)c32)C1 [BCD-BTK-277, (R)-5-(1-(1-acryloylpiperidin-3-yl)-7-chloro-1H-pyrazolo[4,3-c]pyridin-3-yl)-N-(6-fluoropyridin-2-yl)pyrimidine-2-carboxamide]	41.9 µM	2.33
100.0%	8.29 µM	10.2 µM	–	–	–	–	100%	CC#CC(=O)N1CCC[C@@H](n2nc(-c3ccc(C(=O)Nc4ccccn4)cc3)c3cncc(Cl)c32)C1 [BCD-BTK-289, (R)-4-(1-(1-(but-2-ynoyl)piperidin-3-yl)-7-chloro-1H-pyrazolo[4,3-c]pyridin-3-yl)-N-(pyridin-2-yl)benzamide]	18.8 µM	1.85
